Results as given in patent publication US8993636B2 (Alcon, Inc., priority 1998, dated 2015).
Converted amounts (≈) assume the structure as drawn.

Assays:
Assay in all cases: Minimum inhibitory concentration (MIC90)
Format in all cases: cell-based
[1] = tested on: H influenzae/β-lactamase negative; conditions: inhibits growth of 90% of the strains
Text: (§1) The concentrations of the antibiotics of formula (I) in the compositions of the present invention will vary depending on the intended use of the compositions (e.g., treatment of existing infections or prevention of post-surgical infections), and the relative antimicrobial activity of the specific antibiotic selected. The antimicrobial activity of antibiotics is generally expressed as the minimum concentration required to inhibit the growth of a specified pathogen. This concentration is also referred to as the “minimum inhibitory concentration” or “MIC”. The term “MIC90” refers to the minimum concentration of antibiotic required to inhibit the growth of ninety percent (90%) of the strains of a species. The concentration of an antibiotic required to totally kill a specified bacteria is referred to as the “minimum bactericidal concentration” or “MBC”.

[2] = tested on: S. epidermidis/methicillin sensitive; conditions: Staphylococcus epidermidis, inhibits growth of 90% of the strains
Text: as §1

[3] = tested on: S. aureus/quinolone resistant; conditions: Staphylococcus aureus, inhibits growth of 90% of the strains
Text: as §1

[4] = tested on: S. pneumoniae/penicillin sensitive; conditions: Streptococcus pneumoniae, inhibits growth of 90% of the strains
Text: as §1

[5] = tested on: S. pneumoniae/penicillin resistant; conditions: Streptococcus pneumoniae, inhibits growth of 90% of the strains
Text: as §1

[6] = tested on: S. epidermidis/methicillin resistant; conditions: Staphylococcus epidermidis, inhibits growth of 90% of the strains
Text: as §1

[7] = tested on: S. aureus/methicillin sensitive; conditions: Staphylococcus aureus, inhibits growth of 90% of the strains
Text: as §1

[8] = tested on: H. influenzae/β-lactamase positive; conditions: Haemophilus influenzae, inhibits growth of 90% of the strains
Text: as §1

[9] = tested on: S. aureus/methicillin resistant; conditions: Staphylococcus aureus, inhibits growth of 90% of the strains
Text: as §1

P. aeruginosa = conditions: Pseudomonas aeruginosa, inhibits growth of 90% of the strains
Text: as §1

- MIC90 [1]: 0.06 mg/L (≈ 0.149 µM)
- MIC90 [2]: 0.25 mg/L (≈ 0.623 µM)
- MIC90 [3]: 4 mg/L (≈ 9.96 µM)
- MIC90 [4]: 0.25 mg/L (≈ 0.623 µM)
- MIC90 [5]: 0.25 mg/L (≈ 0.623 µM)
- MIC90 [6]: 4 mg/L (≈ 9.96 µM)
- MIC90 [7]: 0.13 mg/L (≈ 0.324 µM)
- MIC90 [8]: 0.06 mg/L (≈ 0.149 µM)
- MIC90 [9]: 4 mg/L (≈ 9.96 µM)
- MIC90 (P. aeruginosa): 8 mg/L (≈ 19.9 µM)
SMILES: COc1c(N2C[C@@H]3CCCN[C@@H]3C2)c(F)cc2c(=O)c(C(=O)O)cn(C3CC3)c12 [Moxifloxacin]
